Reference: patent US12357701B2, “Anti-HER2 biparatopic antibody-drug conjugates and methods of use” (Zymeworks BC Inc., priority 2018, dated 2025)

Key:
Format in all cases: in vivo, cynomolgus monkeys
[1] = Non-GLP repeat-dose toxicity study of v21252; details: after repeat administration of v21252 9 or 12 mg/kg; all below limit of quantitation except three animals
Experimental: (§1) All animals were evaluated for changes in clinical signs, food consumption, body weight, blood pressure, ECGs, respiration rates (visual), clinical pathology (hematology, clinical chemistry, coagulation, urinalysis), organ weights, and macroscopic/microscopic examination of tissues.

[2] = GLP toxicity study of v21252
Experimental: as §1

[3] = Single-dose pharmacokinetics/tolerability study of v17597 and v21252; details: all below LLOQ
Experimental: General tolerability was assessed with clinical observations, body weight, food consumption, and clinical pathology (hematology and clinical chemistry).
Serum concentrations of total antibody were analyzed using an Electrochemiluminescence assay with Meso Scale Discovery platform (ECL/MSD) with anti-pertuzumab antibody as the capture agent and anti-trastuzumab sulfo-TAG as the detection agent.
Serum samples were precipitated with acetonitrile/methanol (50:50, v/v) and supernatants were analyzed. The liquid chromatography system used was a reverse phase column with a gradient flow consisting of water/acetic acid (100/0.05, v/v) and acetonitrile.
Non-compartmental analysis of the serum sample bioanalytical results was used to derive PK parameters (maximum serum concentration [Cmax], terminal half-life [T1/2], clearance [CL] and apparent volume of distribution [Vss]).

CCC(C)[C@@H]([C@@H](CC(=O)N1CCC[C@H]1[C@H](OC)[C@@H](C)C(=O)NS(=O)(=O)c1ccc(N)cc1)OC)N(C)C(=O)[C@@H](NC(=O)[C@H](C(C)C)N(C)C)C(C)C (stereo in doubt) [Compound 9, (S)—N-((3R,4S,5R)-1-((S)-2-((1R,2R)-3-((4-aminophenyl)sulfonamido)-1-methoxy-2-methyl-3-oxopropyl)pyrrolidin-1-yl)-3-methoxy-5-methyl-1-oxoheptan-4-yl)-2-((S)-2-(dimethylamino)-3-methylbutanamido)-N,3-dimethylbutanamide]
payload (Compound 9) serum concentration [1]: < 0.500 ng/mL | toxin (Compound 9) serum concentration ([2]; after repeat administrations of v21252, most concentrations below limit of quantitation): < 0.500 ng/mL | AUC(0-t) ([2]; male, cynomolgus monkey, serum, iv, 18 mg/kg): 125 ng·h/mL | toxin (Compound 9) serum concentration ([3]; after single dose of v17597 (3, 6 or 9 mg/kg)): < 5.00 ng/mL | toxin (Compound 9) serum concentration ([3]; after single dose of v21252 (9 or 12 mg/kg)): < 5.00 ng/mL
